According to patent publication US6812235B2, “Beta-alanine derivatives and their use as receptor anatgonists” (Fujisawa Pharmaceutical Co., Ltd., priority 2000, dated 2004):

Tested on: platelet aggregation induced by ADP in platelet rich plasma (PRP)
Test: Effect on platelet aggregation induced by adenosine diphosphate (ADP)
Format: cell-based
Conditions: human PRP 3×10^8 platelets/ml; test compound in water, 2 minutes at 37° C.; ADP final 2.5 μM; aggregometer; read-out: IC50 (inhibition of ADP-induced platelet aggregation)
Method: Test: Effect on Platelet Aggregation Induced by Adenosine Diphosphate (ADP)
Platelet rich plasma (PRP) which contains 3×10^8 platelets/ml was prepared from human blood. To the 225 μl of PRP, 25 μl of the solution of the test compound in water was added, and then stirred for 2 minutes at 37° C. To the solution 5 μl of ADP (final 2.5 μM) was added as an aggregation inducer. Aggregation was measured by using an aggregometor (NBS HEMA-TRACER 801). Activity of […] (test compound) was expressed as IC50 value, i.e., dose required for […] of platelet aggregation.

Compound: COC(=O)C(=O)N[C@@H](CNC(=O)[C@@H]1CCCN(C(=O)CCC2CCNCC2)C1)C(=O)O [Example 25, N-[(3R)-1-{3-(4-piperidyl)-propionyl}-3-piperidylcarbonyl]-2(S)-methoxyoxalylamino-β-alanine]
- IC50: 85 nM
